Experimental data reported in US7641927B2, “Chewing gum and confectionery compositions containing a stain removing complex, and methods of making and using the same” (Cadbury Adams USA, LLC, priority 2006, dated 2010).

Test: Stain removal study on stained hydroxyapatite (HAP) disks, CIELAB ΔE
Conditions: test solution in artificial human saliva, one hour treatment, 15 ml/min, 37° C.; FIG. 2
Description: A flow system was assembled for staining samples of hydroxyapatite (HAP) disks using a staining solution. The staining solution was prepared from a mixture containing tea, coffee and porcine gastric mucin. The staining solution was circulated through the flow system at a rate of about 15 ml/min, and passed continuously over the HAP disks for about 96 hours at about 37° C. After 96 hours, the stained HAP disks were then placed in artificial human saliva (as prepared in Example 5) at a pH of about 7, and were then rinsed and allowed to dry. The HAP disks were segregated into 6 sample groups. Each of the HAP disks were measured to yield a baseline L*a*b stain score in accordance with the Commission International de L'Eclairage Laboratory (CIELAB) color scale. The CIELAB scale quantifies color according to 3 parameters, L* (lightness-darkness scale), a* (red-green chroma), and b* (yellow-blue chroma). In order to obtain reproducible readings, the stained HAP disks were allowed to air-dry at room temperature for about 2 hours before measurement is to be made. The baseline stain measurements were taken by making diffuse reflectance absorbance readings with a Minolta spectrophotometer. The absorbance readings over the entire visible color spectrum were obtained for each HAP disk. […] The overall change in stain level ΔE was determined for each of the treated HAP disks.

Row | Compound | stain removing activity (ΔE)
1 | OC[C@H]1O[C@@H]2O[C@H]3[C@H](O)[C@@H](O)[C@@H](O[C@H]4[C@H](O)[C@@H](O)[C@@H](O[C@H]5[C@H](O)[C@@H](O)[C@@H](O[C@H]6[C@H](O)[C@@H](O)[C@@H](O[C@H]7[C@H](O)[C@@H](O)[C@@H](O[C@H]8[C@H](O)[C@@H](O)[C@@H](O[C@H]1[C@H](O)[C@H]2O)O[C@@H]8CO)O[C@@H]7CO)O[C@@H]6CO)O[C@@H]5CO)O[C@@H]4CO)O[C@@H]3CO [β-cyclodextrin] | least stain removing activity
2 | CCCCCCCCCCCCCCCCCC(=O)[O-].[Na+] [sodium stearate] | least stain removing activity
